Experimental data as given in patent US20250179017A1 (GUANGDONG NEWOPP BIOPHARMACEUTICALS CO., LTD., priority 2022, published 2025).

The compounds below were run against T1, human EP2 (PTGER2) (Homo sapiens, UniProt P43116) (assay: EP2 antagonist assay (HEK-293 CNG membrane potential cAMP assay / 293T SEAP reporter assay, PGE2-stimulated)). Settings: EP2 antagonist activity; concentration for 50% inhibition of signal compared to DMSO.
T1 construct: Cayman Chemical (Human EP2 Reporter Assay Kit)
Assay type: cell-based
How it was run: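 HEK-293 CNG cells expressing human EP2: compound preincubated 15 min at RT, then PGE2 at 5 nM final, 30 min; membrane-potential dye fluorescence (ex 530, em 590 nm), background-subtracted, gave IC50. Alternatively, 293T cells reverse-transfected with EP2 and CRE-SEAP, compound plus 13 nM PGE2 for 6-8 h, SEAP luminescence.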

T1 sequence (P43116 whole entry): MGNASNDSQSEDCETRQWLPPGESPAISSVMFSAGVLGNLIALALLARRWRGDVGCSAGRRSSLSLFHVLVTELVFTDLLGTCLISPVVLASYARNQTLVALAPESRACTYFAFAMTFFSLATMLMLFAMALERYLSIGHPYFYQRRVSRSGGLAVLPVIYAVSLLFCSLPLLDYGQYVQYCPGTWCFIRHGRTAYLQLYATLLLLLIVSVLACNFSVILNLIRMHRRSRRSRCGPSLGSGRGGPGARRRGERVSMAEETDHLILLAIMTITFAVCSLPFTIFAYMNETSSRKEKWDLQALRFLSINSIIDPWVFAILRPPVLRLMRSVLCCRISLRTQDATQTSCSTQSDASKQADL

IC50 [nM] | SMILES
< 100 | N#Cc1cccc(-c2cc(C(=O)NCc3ccc(C(=O)O)cc3)c3c(ccn3Cc3cccc(C(F)(F)F)c3)c2)c1 [Example 126, 4-((5-(3-cyanophenyl)-1-(3-(trifluoromethyl)benzyl)-1H-indole-7-carboxamido)methyl)benzoic acid]
< 100 | C[C@H](NC(=O)c1cc(-c2cccc(C#N)c2)cc2ccn(Cc3cccc(C(F)(F)F)c3)c12)c1ccc(C(=O)O)cc1 [Example 127, (S)-4-(1-(5-(3-cyanophenyl)-1-(3-(trifluoromethyl)benzyl)-1H-indole-7-carboxamido)ethyl)benzoic acid]
< 100 | C[C@H](NC(=O)c1cc(-c2cccnc2)cc2ccn(Cc3cccc(C(F)(F)F)c3)c12)c1ccc(C(=O)O)cc1 [Example 128, (S)-4-(1-(5-(pyridin-3-yl)-1-(3-(trifluoromethyl)benzyl)-1H-indole-7-carboxamido)ethyl)benzoic acid]
< 100 | C[C@H](NC(=O)c1cc(-c2cc(F)cc(F)c2)cc2ccn(Cc3cccc(C(F)(F)F)c3)c12)c1ccc(C(=O)O)cc1 [Example 130, (S)-4-(1-(5-(3,5-difluorophenyl)-1-(3-(trifluoromethyl)benzyl)-1H-indole-7-carboxamido)ethyl)benzoic acid]
100 to 1000 | O=C(O)c1ccc(C2(NC(=O)c3cc(-c4ccccc4)cc4ccn(Cc5cccc(C(F)(F)F)c5)c34)CC2)cc1 [Example 131, 4-(1-(5-phenyl-1-(3-(trifluoromethyl)benzyl)-1H-indole-7-carboxamido)cyclopropyl)benzoic acid]
100 to 1000 | O=C(O)c1ccc(C2(NC(=O)c3cc(-c4cc(F)cc(F)c4)cc4ccn(Cc5cccc(C(F)(F)F)c5)c34)CC2)cc1 [Example 132, 4-(1-(5-(3,5-difluorophenyl)-1-(3-(trifluoromethyl)benzyl)-1H-indole-7-carboxamido)cyclopropyl)benzoic acid]
100 to 1000 | N#Cc1cccc(-c2cc(C(=O)NC3(c4ccc(C(=O)O)cc4)CC3)c3c(ccn3Cc3cccc(C(F)(F)F)c3)c2)c1 [Example 133, 4-(1-(5-(3-cyanophenyl)-1-(3-(trifluoromethyl)benzyl)-1H-indole-7-carboxamido)cyclopropyl)benzoic acid]
< 100 | O=C(O)c1ccc(CNC(=O)c2cc(-c3ccc(F)cc3)cc3cnn(Cc4cccc(C(F)(F)F)c4)c23)cc1 [Example 138, 4-((5-(4-fluorophenyl)-1-(3-(trifluoromethyl)benzyl)-1H-indazole-7-carboxamido)methyl)benzoic acid]
< 100 | O=C(O)c1ccc(CNC(=O)c2cc(-c3cc(F)cc(F)c3)cc3cnn(Cc4cccc(C(F)(F)F)c4)c23)cc1 [Example 139, 4-((5-(3,5-difluorophenyl)-1-(3-(trifluoromethyl)benzyl)-1H-indazole-7-carboxamido)methyl)benzoic acid]
100 to 1000 | O=C(O)c1ccc(C2(NC(=O)c3cc(-c4ccccc4)cc4cnn(Cc5cccc(C(F)(F)F)c5)c34)CC2)cc1 [Example 140, 4-(1-(5-phenyl-1-(3-(trifluoromethyl)benzyl)-1H-indazole-7-carboxamido)cyclopropyl)benzoic acid]
< 100 | O=C(O)c1ccc(CNC(=O)c2cc(-c3ccc(F)cc3)cc3ccn(Cc4ccc5ccccc5n4)c23)cc1 [Example 142, 4-((5-(4-fluorophenyl)-1-(quinolin-2-ylmethyl)-1H-indole-7-carboxamido)methyl)benzoic acid]
< 100 | C[C@H](NC(=O)c1cc(-c2ccccc2)cc2ccn(Cc3ccc4ccccc4n3)c12)c1ccc(C(=O)O)cc1 [Example 143, (S)-4-(1-(5-phenyl-1-(quinolin-2-ylmethyl)-1H-indole-7-carboxamido)ethyl)benzoic acid]
< 100 | C[C@H](NC(=O)c1cc(-c2ccc(F)cc2)cc2ccn(Cc3ccc4ccccc4n3)c12)c1ccc(C(=O)O)cc1 [Example 144, (S)-4-(1-(5-(4-fluorophenyl)-1-(quinolin-2-ylmethyl)-1H-indole-7-carboxamido)ethyl)benzoic acid]
< 100 | O=C(O)c1ccc(CNC(=O)c2cc(-c3ccccc3)cc3ccn(Cc4cccc(-c5ccccc5)c4)c23)cc1 [Example 145, ((1-([1,1′-biphenyl]-3-ylmethyl)-5-phenyl-1H-indole-7-carboxamido)methyl)benzoic acid]
< 100 | COc1cccc(Cn2ccc3cc(-c4ccccc4)cc(C(=O)NCc4ccc(C(=O)O)cc4)c32)c1 [Example 146, 4-((1-(3-methoxybenzyl)-5-phenyl-1H-indole-7-carboxamido)methyl)benzoic acid]
< 100 | O=C(O)c1ccc(CNC(=O)c2cc(-c3ccc(F)cc3)cc3ccn(Cc4ccc(-c5ccccc5)cc4)c23)cc1 [Example 148, 4-((1-([1,1′-biphenyl]-4-ylmethyl)-5-(4-fluorophenyl)-1H-indole-7-carboxamido)methyl)benzoic acid]
< 100 | O=C(O)c1ccc(CNC(=O)c2ccc(Nc3ccccc3)c3ccn(Cc4ccc5ccccc5n4)c23)cc1 [Example 153, 4-((4-(phenylamino)-1-(quinolin-2-ylmethyl)-1H-indole-7-carboxamido)methyl)benzoic acid]

IC50 [nM] | SMILES
< 100 | COc1cccc(Cn2ccc3c(Nc4ccccc4)ccc(C(=O)NCc4ccc(C(=O)O)cc4)c32)c1 [Example 155, 4-((1-(3-methoxybenzyl)-4-(phenylamino)-1H-indole-7-carboxamido)methyl)benzoic acid]
< 100 | O=C(O)c1ccc(CNC(=O)c2cc(-c3cc(F)cc(F)c3)cc3cnn(Cc4ccc5ccccc5c4)c23)cc1 [Example 157, 4-((5-(3,5-difluorophenyl)-1-(naphthalen-2-ylmethyl)-1H-indazole-7-carboxamido)methyl)benzoic acid]
< 100 | COc1cccc(Cn2ccc3c(Nc4ccccc4)ccc(C(=O)N[C@@H](C)c4ccc(C(=O)O)cc4)c32)c1 [Example 158, (S)-4-(1-(1-(3-methoxybenzyl)-4-(phenylamino)-1H-indole-7-carboxamido)ethyl)benzoic acid]
< 100 | O=C(O)c1ccc(CNC(=O)c2cc(-c3ccccc3)cc3ccn(Cc4ccc5ccccc5c4)c23)cc1 [Example 159, 4-((1-(naphthalen-2-ylmethyl)-5-phenyl-1H-indole-7-carboxamido)methyl)benzoic acid]
< 100 | O=C(O)c1ccc(CNC(=O)c2cc(-c3ccc(F)cc3)cc3ccn(Cc4ccc5ccccc5c4)c23)cc1 [Example 160, 4-((5-(4-fluorophenyl)-1-(naphthalen-2-ylmethyl)-1H-indole-7-carboxamido)methyl)benzoic acid]
< 100 | O=C(O)c1ccc(CNC(=O)c2cc(-c3cc(F)cc(F)c3)cc3ccn(Cc4ccc5ccccc5c4)c23)cc1 [Example 161, 4-((5-(3,5-difluorophenyl)-1-(naphthalen-2-ylmethyl)-1H-indole-7-carboxamido)methyl)benzoic acid]
< 100 | C[C@H](NC(=O)c1cc(-c2ccccc2)cc2ccn(Cc3ccc4ccccc4c3)c12)c1ccc(C(=O)O)cc1 [Example 162, (S)-4-(1-(1-(naphthalen-2-ylmethyl)-5-phenyl-1H-indole-7-carboxamido)ethyl)benzoic acid]
< 100 | C[C@H](NC(=O)c1cc(-c2ccc(F)cc2)cc2ccn(Cc3ccc4ccccc4c3)c12)c1ccc(C(=O)O)cc1 [Example 163, (S)-4-(1-(5-(4-fluorophenyl)-1-(naphthalen-2-ylmethyl)-1H-indole-7-carboxamido)ethyl)benzoic acid]
< 100 | C[C@H](NC(=O)c1cc(-c2cc(F)cc(F)c2)cc2ccn(Cc3ccc4ccccc4c3)c12)c1ccc(C(=O)O)cc1 [Example 164, (S)-4-(1-(5-(3,5-difluorophenyl)-1-(naphthalen-2-ylmethyl)-1H-indole-7-carboxamido)ethyl)benzoic acid]
< 100 | C[C@H](NC(=O)c1cc(-c2ccccc2)cc2cnn(Cc3ccc4ccccc4c3)c12)c1ccc(C(=O)O)cc1 [Example 167, (S)-4-(1-(1-(naphthalen-2-ylmethyl)-5-phenyl-1H-indazole-7-carboxamido)ethyl)benzoic acid]
< 100 | C[C@H](NC(=O)c1cc(-c2ccccc2)cc2cnn(Cc3cccc(Cl)c3)c12)c1ccc(C(=O)O)cc1 [Example 170, (S)-4-(1-(1-(3-chlorobenzyl)-5-phenyl-1H-indazole-7-carboxamido)ethyl)benzoic acid]
< 100 | O=C(O)c1ccc(CNC(=O)c2cc(-c3ccccc3)cc3ncn(Cc4ccc(C(F)(F)F)cc4)c23)cc1 [Example 171, 4-((5-phenyl-1-(4-(trifluoromethyl)benzyl)-1H-benzo[d]imidazole-7-carboxamido)-methyl)benzoic acid]
< 100 | O=C(O)c1ccc(CNC(=O)c2cc(-c3ccc(F)cc3)cc3ncn(Cc4ccc(C(F)(F)F)cc4)c23)cc1 [Example 172, 4-((5-(4-fluorophenyl)-1-(4-(trifluoromethyl)benzyl)-1H-benzo[d]imidazole-7-carboxamido)methyl)benzoic acid]
< 100 | O=C(O)c1ccc(CNC(=O)c2cc(-c3cc(F)cc(F)c3)cc3ncn(Cc4ccc(C(F)(F)F)cc4)c23)cc1 [Example 173, 4-((5-(3,5-difluorophenyl)-1-(4-(trifluoromethyl)benzyl)-1H-benzo[d]imidazole-7-carboxamido)methyl)benzoic acid]
< 100 | O=C(O)c1ccc(CNC(=O)c2cc(-c3ccccc3)cc3nnn(Cc4ccc(C(F)(F)F)cc4)c23)cc1 [Example 174, ((5-phenyl-1-(4-(trifluoromethyl)benzyl)-1H-benzo[d][1,2,3]triazole-7-carboxamido)methyl)benzoic acid]
< 100 | O=C(O)c1ccc(CNC(=O)c2cc(-c3ccccc3)cc3ccn(Cc4cccc5ccccc45)c23)cc1 [Example 177, 44-((1-(naphthalen-1-ylmethyl)-5-phenyl-1H-indole-7-carboxamido)methyl)benzoic acid]
